Results from US11541057B2, “Thienopyrimidinone NMDA receptor modulators and uses thereof” (Cadent Therapeutics, Inc., priority 2015, dated 2023).

Molecular target: T1, NMDA receptor GRIN1/GRIN2B (NR2B) expressed in HEK293 cells (Homo sapiens, UniProt Q13224)
T1 construct: host or cells: HEK293
Test: Reversal of Ro 25-6981-mediated suppression of the Ca2+ response (fluo-8 fluorescence, FDSS) in HEK293 cells expressing GRIN1 and GRIN2B
Assay type: cell-based
Conditions: % reversal=100*(R−Rneg)/(Rpos−Rneg) of Ro 25-6981 suppression of co-agonist (glutamate/glycine) Ca2+ response, 10 min pre-incubation, compound concentration not given
Method: HEK293 cells with constructs conferring stable expression of the GRIN1 gene and tetracycline-inducible expression of the GRIN2B gene (Chantest, Cleveland, Ohio) are grown to ˜75% confluence in tissue culture flasks at 37° C., 5% CO2. NR2B expression is induced by overnight incubation with 0.3-0.4 μg/ml tetracycline in the presence of 2.5 mM ARL-15896 at 37° C., followed by moving to 30° C. for 3-5 hours. Cells are next harvested using TripleExpress™ (Life Technologies, Carlsbad, Calif.) according to the manufacturer's instructions, first removing culture medium, rinsing with Dulbecco's phosphate buffered saline (Ca^2+ and Mg^2+-free), and then adding the TripleExpress™ reagent. Harvested cells are spun down, washed twice in Ca^2+- and Mg^2+-free Hank's Balanced Salt Solution with 20 mM HEPES and 10 mM glucose, pH 7.4 (HHnoCa solution), and counted with viability assessed using Trypan Blue. Cells are loaded with fluo-8 Ca^2+-sensitive dye in HHnoCa solution according to the manufacturer's directions (AAT Bioquest, Sunnyvale, Calif.), incubating at 37° C. for 20 minutes followed by 25 minutes at 22-25° C. After a wash in HHnoCa to remove extracellular dye, cells are resuspended in HHnoCa and plated at […] cells per well in a volume of 25 μl/well in 384 well black-wall, clear bottom plates (Hamamatsu, Middlesex, N.J.). Plates are then centrifuged to create a monolayer in the wells and stored in the dark until used.
Prior to analysis, compound plates are prepared with each compound at 6× the final desired concentration. From stock solutions at 10 mM in 100% DMSO, compounds are spotted in the desired amounts using an ECHO liquid handler (Labcyte, Sunnyvale, Calif.) into wells of a 384-well plate and then diluted with 50 μl of HHnoCa containing 750 nM Ro 25-6981 and 120 μM 5,7-dichlorokynurenic acid (both purchased from Tocris Bioscience (Bristol, England) and maintained as 10 mM stock solutions in 100% DMSO). To insure complete compound dissolution, these plates are then placed in an orbital shaker for at least one hour. Also prepared prior to the assay is a co-agonist plate containing HHnoCa with 240 μM glutamate, 2.4 mM glycine, and 7.2 mM CaCl2, which is 2.4× the desired final concentration of each reagent. Both the compound plate and co-agonist plate are 384-well polypropylene plates from Thermo Fisher Scientific, Waltham, Mass.
The assay is performed by first adding 10 μl solution from each well of the compound plate described above to the cell plate using a CyBiWell liquid handler (Analytik Jena AG, Jena, Germany), followed by 10 minutes pre-incubation in the dark. Cell plates are then loaded onto a Hamamatsu FDSS 6000 plate reader. After a 30-second baseline, 25 μl is added to each well from the co-agonist plate, and the fluorescence signal is recorded for another 2 minutes. FDSS software applies shading and autofluorescence correction, and resultant raw fluorescence measurements are exported in the form of a fluorescence ratio for each well to its own reading at time zero in the experiment. In each plate, negative control wells consist of wells where Ro 25-6981 and 5,7 dichlorokynurenic acid are present and co-agonist is applied in the absence of any added assay compound. Under these conditions, the Ca^2+ response to co-agonist is suppressed. Positive control wells also present in each plate contain 5,7 dichlorokynurenic acid but no Ro 25-6981, so that co-agonist addition results in a large Ca^2+ response. Compounds tested are evaluated on the basis of their ability to reverse the suppression of the Ca^2+ response mediated by Ro 25-6981, which is quantified as % reversal=100*(R−Rneg)/(Rpos−Rneg) where R is the fluorescence ratio for the test compound at the end of the experiment and Rneg and Rpos are the end ratios for the negative and positive controls, respectively. […]

T1 sequence (Q13224 27-1484, other chains not shown): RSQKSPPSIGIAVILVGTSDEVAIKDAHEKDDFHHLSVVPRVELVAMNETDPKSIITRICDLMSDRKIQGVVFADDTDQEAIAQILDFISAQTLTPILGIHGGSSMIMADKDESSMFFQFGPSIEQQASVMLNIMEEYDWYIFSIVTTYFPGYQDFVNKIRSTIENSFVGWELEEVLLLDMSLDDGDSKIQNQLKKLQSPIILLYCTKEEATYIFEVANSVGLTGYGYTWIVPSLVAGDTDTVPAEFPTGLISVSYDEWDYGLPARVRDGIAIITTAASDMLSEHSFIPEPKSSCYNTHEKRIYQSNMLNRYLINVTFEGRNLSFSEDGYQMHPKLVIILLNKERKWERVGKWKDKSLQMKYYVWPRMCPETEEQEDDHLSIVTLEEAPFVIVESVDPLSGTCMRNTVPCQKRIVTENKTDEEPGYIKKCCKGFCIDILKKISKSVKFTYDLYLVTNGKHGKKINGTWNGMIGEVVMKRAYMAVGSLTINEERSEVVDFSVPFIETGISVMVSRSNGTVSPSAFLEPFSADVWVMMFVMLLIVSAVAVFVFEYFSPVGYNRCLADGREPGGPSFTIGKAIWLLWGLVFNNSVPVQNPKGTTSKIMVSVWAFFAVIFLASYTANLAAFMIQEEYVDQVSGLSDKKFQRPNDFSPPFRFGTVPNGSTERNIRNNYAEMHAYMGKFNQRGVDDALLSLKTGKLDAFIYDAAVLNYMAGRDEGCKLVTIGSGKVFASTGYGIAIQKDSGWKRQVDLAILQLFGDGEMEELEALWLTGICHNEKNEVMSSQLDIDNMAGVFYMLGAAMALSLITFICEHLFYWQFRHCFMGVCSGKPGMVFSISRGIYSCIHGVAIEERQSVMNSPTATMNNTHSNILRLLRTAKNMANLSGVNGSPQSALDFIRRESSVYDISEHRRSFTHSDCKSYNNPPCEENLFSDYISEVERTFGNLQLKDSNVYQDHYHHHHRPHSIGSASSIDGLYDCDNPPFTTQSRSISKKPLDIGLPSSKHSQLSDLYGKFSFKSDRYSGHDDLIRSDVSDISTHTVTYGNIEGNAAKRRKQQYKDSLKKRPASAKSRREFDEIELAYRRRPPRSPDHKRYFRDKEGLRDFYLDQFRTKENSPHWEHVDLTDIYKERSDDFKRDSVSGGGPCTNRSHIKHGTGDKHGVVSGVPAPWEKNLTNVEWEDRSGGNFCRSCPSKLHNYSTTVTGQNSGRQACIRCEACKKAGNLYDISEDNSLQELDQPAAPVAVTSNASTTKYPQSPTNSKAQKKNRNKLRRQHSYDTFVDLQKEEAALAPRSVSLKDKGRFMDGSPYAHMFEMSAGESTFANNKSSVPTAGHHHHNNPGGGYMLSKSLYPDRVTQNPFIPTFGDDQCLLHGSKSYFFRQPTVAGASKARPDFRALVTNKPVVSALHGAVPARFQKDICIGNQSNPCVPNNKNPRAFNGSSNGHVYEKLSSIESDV

Response Recovered (%) | SMILES
5 | CCN(CC)C(=O)Cn1cnc2scc(-c3ccc(Cl)cc3)c2c1=O [Example 13, 2-[5-(4-chlorophenyl)-4-oxo-3H,4H-thieno[2,3-d]pyrimidin-3-yl]-N,N-diethylacetamide]
41 | O=C(Cn1cnc2scc(-c3ccc(F)c(Cl)c3)c2c1=O)N1CCCC1 [Example 30, 5-(3-chloro-4-fluorophenyl)-3-[2-oxo-2-(pyrrolidin-1-yl)ethyl]-3H,4H-thieno└2,3-d┘pyrimidin-4-one]
22 | O=C(Cn1cnc2scc(-c3cnc(Cl)c(C(F)(F)F)c3)c2c1=O)N1CCC(F)C1 (stereo not shown) [Example 70, 5-[6-chloro-5-(trifluoromethyl)pyridin-3-yl]-3-[2-(3-fluoropyrrolidin-1-yl)-2-oxoethyl]-3H,4H-thieno[2,3-d]pyrimidin-4-one]
62 | O=C(Cn1cnc2scc(-c3ccc(C(F)(F)F)c(Cl)c3)c2c1=O)N1CCC(F)C1 (stereo not shown) [Example 62]
9 | Cc1cc(C(F)(F)F)ccc1-c1csc2ncn(CC(=O)N3CCCC3)c(=O)c12 [Example 50]
2 | O=C(Cn1cnc2scc(-c3ccc(Cl)cc3)c2c1=O)N1CCC(F)(F)CC1 [Example 14, 5-(4-chlorophenyl)-3-[2-(4,4-difluoropiperidin-1-yl)-2-oxoethyl]-3H,4H-thieno└2,3-d┘pyrimidin-4-one]
1 | O=C(Cn1cnc2sc(-c3ccc(Cl)cc3)cc2c1=O)N1CCCC1 [Example 74, 6-(4-chlorophenyl)-3-(2-oxo-2-(pyrrolidin-1-yl)ethyl)thieno[2,3-d]pyrimidin-4(3H)-one]
0 | CN(C)c1ccc(-c2csc3ncn(CC(=O)N4CCCC4)c(=O)c23)cc1 [Example 49, 5-[4-(dimethylamino)phenyl]-3-[2-oxo-2-(pyrrolidin-1-yl)ethyl]-3H,4H-thieno[2,3-d]pyrimidin-4-one]
3 | O=C(Cn1cnc2scc(-c3ccc(F)c(F)c3)c2c1=O)N1CCCC1 [Example 42, 5-(3,4-difluorophenyl)-3-[2-oxo-2-(pyrrolidin-1-yl)ethyl]-3H,4H-thieno[2,3-d]pyrimidin-4-one]
7 | O=C(Cn1cnc2scc(-c3ccc(F)cc3)c2c1=O)N1CCCC1C(F)(F)F (stereo not shown) [Example 27]
98 | O=C(Cn1cnc2scc(-c3ccc(Cl)c(Cl)c3)c2c1=O)N1CCC(F)C1 (stereo not shown) [Example 60, 5-(3,4-dichlorophenyl)-3-[2-(3-fluoropyrrolidin-1-yl)-2-oxoethyl]-3H,4H-thieno[2,3-d]pyrimidin-4-one]
51 | O=C(On1cnc2scc(-c3ccc(Cl)c(C(F)(F)F)c3)c2c1=O)N1CCCC1 [Example 85, 5-(4-chloro-3-(trifluoromethyl)phenyl)-4-oxothieno[2,3-d]pyrimidin-3(4H)-yl pyrrolidine-1-carboxylate]
2 | C[C@H]1CCCN1C(=O)Cn1cnc2scc(-c3ccc(Cl)cc3)c2c1=O [Example 10, 5-(4-chlorophenyl)-3-{2-[(2S)-2-methylpyrrolidin-1-yl]-2-oxoethyl}-3H,4H-thieno[2,3-d]pyrimidin-4-one]
2 | N#Cc1ccc(-c2csc3ncn(CC(=O)N4CCCC4)c(=O)c23)cc1 [Example 32, 4-{4-oxo-3-[2-oxo-2-(pyrrolidin-1-yl)ethyl]-3H,4H-thieno[2,3-d]pyrimidin-5-yl}benzonitrile]
10 | O=C(Nn1cnc2scc(-c3ccc(F)c(Cl)c3)c2c1=O)N1CCCC1 [Example 90]
6 | Cc1nc2scc(-c3ccc(Cl)cc3)c2c(=O)n1CC(=O)N1CCCC1 [Example 98, 5-(4-chlorophenyl)-2-methyl-3-(2-oxo-2-(pyrrolidin-1-yl)ethyl)thieno[2,3-d]pyrimidin-4(3H)-one]
−2 | O=C(CCn1cnc2scc(-c3ccc(Cl)c(C(F)(F)F)c3)c2c1=O)N1CCCC1C(F)(F)F (stereo not shown) [Example 103, 5-[4-chloro-3-(trifluoromethyl)phenyl]-3-{3-oxo-3-[2-(trifluoromethyl)pyrrolidin-1-yl]propyl}-3H,4H-thieno[2,3-d]pyrimidin-4-one]
8 | O=C(Cn1cnc2scc(-c3ccc(C(F)(F)F)cc3Cl)c2c1=O)N1CCCC1 [Example 43, 5-[2-chloro-4-(trifluoromethyl)phenyl]-3-[2-oxo-2-(pyrrolidin-1-yl)ethyl]-3H,4H-thieno[2,3-d]pyrimidin-4-one]
0 | CC(C(=O)N1CCCC1)n1cnc2scc(-c3ccc(Cl)c(C(F)(F)F)c3)c2c1=O (stereo not shown) [Example 56, 5-[4-chloro-3-(trifluoromethyl)phenyl]-3-[1-oxo-1-(pyrrolidin-1-yl)propan-2-yl]-3H,4H-thieno[2,3-d]pyrimidin-4-one]
13 | O=C(Cn1cnc2sc(-c3ccc(Cl)cc3)cc2c1=O)N1CCC(F)(F)CC1 [Example 78, 6-(4-chlorophenyl)-3-[2-(4,4-difluoropiperidin-1-yl)-2-oxoethyl]-3H,4H-thieno└2,3-d┘pyrimidin-4-one]
103 | O=C(Cn1cnc2scc(-c3ccc(Cl)c(C(F)(F)F)c3)c2c1=O)N1C[C@@H](F)[C@@H](F)C1 [Example 66, 5-[4-chloro-3-(trifluoromethyl)phenyl]-3-{2-[(3R,4S)-3,4-difluoropyrrolidin-1-yl]-2-oxoethyl}-3H,4H-thieno[2,3-d]pyrimidin-4-one]
15 | O=C(Cn1cnc2scc(-c3cnc(Cl)c(Cl)c3)c2c1=O)N1CC(F)C(F)C1 (stereo not shown) [Example 72, 5-(5,6-dichloropyridin-3-yl)-3-[2-(3,4-difluoropyrrolidin-1-yl)-2-oxoethyl]-3H,4H-thieno[2,3-d]pyrimidin-4-one]
37 | O=C(COn1cnc2scc(-c3ccc(Cl)c(C(F)(F)F)c3)c2c1=O)N1CCCC1 [Example 92, 5-(4-chloro-3-(trifluoromethyl)phenyl)-3-(2-oxo-2-(pyrrolidin-1-yl)ethoxy)thieno[2,3-d]pyrimidin-4(3H)-one]
8 | O=C(Cn1cnc2scc(-c3ccc(C(F)(F)F)cc3)c2c1=O)N1CCCC1C(F)(F)F (stereo not shown) [Example 18, 3-{2-oxo-2-[2-(trifluoromethyl)pyrrolidin-1-yl]ethyl}-5-[4-(trifluoromethyl)phenyl]-3H,4H-thieno[2,3-d]pyrimidin-4-one]
87 | O=C(Cn1cnc2scc(-c3ccc(Cl)c(C(F)(F)F)c3)c2c1=O)N1CC[C@H](F)C1 [Example 65, 5-[4-chloro-3-(trifluoromethyl)phenyl]-3-{2-[(3S)-3-fluoropyrrolidin-1-yl]-2-oxoethyl}-3H,4H-thieno[2,3-d]pyrimidin-4-one]
15 | Cc1sc2ncn(CC(=O)N3CCCC3)c(=O)c2c1-c1ccc(Cl)c(C(F)(F)F)c1 [Example 82, 5-[4-chloro-3-(trifluoromethyl)phenyl]-6-methyl-3-[2-oxo-2-(pyrrolidin-1-yl)ethyl]-3H,4H-thieno[2,3-d]pyrimidin-4-one]
3 | CC(C(=O)N1CCCC1)n1cnc2scc(-c3ccc(F)c(Cl)c3)c2c1=O (stereo not shown) [Example 57, 5-(3-chloro-4-fluorophenyl)-3-[1-oxo-1-(pyrrolidin-1-yl)propan-2-yl]-3H,4H-thieno[2,3-d]pyrimidin-4-one]
27 | O=C(Nn1cnc2scc(-c3ccc(F)c(Cl)c3)c2c1=O)C1CCCC1 [Example 96, N-[5-(3-chloro-4-fluorophenyl)-4-oxo-3H,4H-thieno[2,3-d]pyrimidin-3-yl]cyclopentanecarboxamide]
